Source: patent US20230416703A1, “Methods and Materials for Producing Polyols and Electron Rich Compounds” (THE TRUSTEES OF PRINCETON UNIVERSITY, priority 2019, published 2023)
Entries after “also recorded” stand apart in the source; their conditions may differ.

Experiments:
Pyp1 = biological target: T1, Pyp1 (Saccharomyces cerevisiae, UniProt P53981); experiment: Phosphatase activity of purified recombinant Pyp1 against phosphorylated substrates; format: biochemical, S. cerevisiae; details: incubation with purified Pyp1, 0.5 mM substrate
T1 construct: made in house; host or cells: E. coli BL21 (DE3) Gold
T1 sequence (P53981 whole entry): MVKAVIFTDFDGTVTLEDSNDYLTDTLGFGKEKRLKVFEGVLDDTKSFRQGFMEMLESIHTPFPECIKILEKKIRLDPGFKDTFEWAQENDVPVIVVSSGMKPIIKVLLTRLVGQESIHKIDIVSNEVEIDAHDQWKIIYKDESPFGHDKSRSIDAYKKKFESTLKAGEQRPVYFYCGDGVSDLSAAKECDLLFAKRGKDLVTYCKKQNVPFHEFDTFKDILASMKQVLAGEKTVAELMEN
Description: Purified Pyp1 phosphatase activity was assayed in the presence of 0.5 mM substrate and 5 mM Mg^2+ (pH=7.0, 30° C.) by monitoring the appearance of free phosphate or the polyol. The y axis represents specific phosphatase activity (μmol product made per mg of protein per minute) (mean±range of N=2 replicates).
Purified Pyp1's phosphatase activity was assayed against 0.5 mM ribitol-5P by LC-MS. […] (FIG. 10B). Pyp1's D-polyol phosphatase activity was measured in the presence of 0.5 mM substrate and 5 mM Mg^2+ (pH=7.0, 30° C.) by monitoring the appearance of phosphate or the polyol. The y-axis represents specific phosphatase activity (moles product per min per mg of protein) (mean±range, N=2).
In the initial screening of Pyp1's phosphatase activity, the gene encoding Pyp1 was amplified by PCR using S. cerevisiae genomic DNA. The amplified fragments were cloned into a modified pET15b vector (Novagen, Darmstadt, Germany) and overexpressed in the E. coli BL21(DE3) Gold strain (Stratagene, La Jolla, California) as previously described by Kuznetsova et al., J Biol Chem 2010, 285, 21049. The recombinant proteins were purified using metal ion affinity chromatography on nickel affinity resin (Qiagen, Hilden, Germany) to high homogeneity and stored at −80° C. Purified Pyp1 was screened for the presence of phosphatase activity against the general phosphatase substrate p-nitrophenyl phosphate (pNPP) and 90 phosphorylated metabolites as described previously by Kuznetsova et al., J Biol Chem 2006, 281, 36149. […]
Briefly, the gene encoding Pyp1 was amplified by PCR using S. cerevisiae genomic DNA. The amplified fragments were cloned into a modified pET15b vector (Novagen, Darmstadt, Germany) and overexpressed in the E. coli BL21 (DE3) Gold strain (Stratagene, La Jolla, California) as previously described (Kuznetsova et al., 2010). The recombinant protein was purified using metal ion affinity chromatography on nickel chelate resin (Qiagen, Hilden, Germany) to high homogeneity and stored at −80° C. Purified Pyp1 was then screened for phosphatase activity as described previously (Kuznetsova et al., 2006).

pyp1Δ cells = experiment: Growth rate of pyp1Δ yeast in the presence of ribitol; format: cell-based, Saccharomyces cerevisiae
From the text: (§1) Wild type yeast and pyp1Δ cells growing on 1% trehalose in the absence or presence of 1% ribitol (upper panel) were switched to media with trehalose substituted by 1% glucose (lower panel). The y axis represents ratio of growth rates (mean±range of N=2 replicates) of cells growing in the presence of ribitol vs. cells growing in the absence of ribitol. […] The x axis represents hours after the switch and the y axis represents absolute intracellular concentration (mean±range of N=2 replicates). […] The x axis represents different growth rates and the y axis represents relative expression level of PYP1. […] The y axis represents absolute intracellular concentration, except for the panel displaying the NADPH/NADP^+ ratio (mean±range of N=2 replicates).
(§2) (FIG. 12A). Growth of wild type and pyp1Δ yeast on sorbitol. Yeast cells grown on YPD medium were switched to minimal media containing 2% sorbitol as the carbon source. The x-axis represents days after the switch and the y-axis represents optical density (A600). (FIG. 12B). Absolute concentration of sorbitol-6-phosphate in wild type and pyp1Δ cells in the experiment shown in (A). The x-axis represents days after the switch and the y-axis represents absolute intracellular concentration (mean±range, N=2). (FIG. 12C). Growth of wild type and pyp1Δ cells on glycerol and mannitol. […]

[1] = biological target: T2, yeast Pgi1 (phosphoglucose isomerase) (Saccharomyces cerevisiae, UniProt P12709); experiment: Inhibition of purified Pgi1 (phosphoglucose isomerase) activity, LC/MS detection of glucose-6-phosphate; format: biochemical; details: for Inhibition of Pgi1 (in words): 0.6 mM fructose-6-phosphate, 0.05-5 mM polyol phosphate
T2 construct: purchased Sigma Aldrich (St. Louis, MO)
T2 sequence (P12709 2-554 limits assumed): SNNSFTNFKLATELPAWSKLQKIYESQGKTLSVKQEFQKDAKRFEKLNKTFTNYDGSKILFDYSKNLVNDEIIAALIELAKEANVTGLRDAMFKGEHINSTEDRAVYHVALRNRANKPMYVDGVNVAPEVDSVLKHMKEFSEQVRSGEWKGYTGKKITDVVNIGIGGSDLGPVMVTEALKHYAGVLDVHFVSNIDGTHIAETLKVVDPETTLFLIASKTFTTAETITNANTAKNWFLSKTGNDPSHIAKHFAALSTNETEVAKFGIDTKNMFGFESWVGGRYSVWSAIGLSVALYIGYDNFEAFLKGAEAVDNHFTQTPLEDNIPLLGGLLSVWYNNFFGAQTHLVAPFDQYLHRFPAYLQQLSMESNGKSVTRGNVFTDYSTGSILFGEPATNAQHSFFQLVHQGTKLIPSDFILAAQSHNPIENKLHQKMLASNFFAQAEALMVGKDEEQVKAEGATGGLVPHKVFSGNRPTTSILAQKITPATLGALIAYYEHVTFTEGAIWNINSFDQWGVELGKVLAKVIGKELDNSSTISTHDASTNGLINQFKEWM
Description: Purified Pgi1's activity was assayed in the presence of 0.6 mM fructose-6-phosphate, 5 mM Mg^2+ (pH=7.0, 30° C.) and a range of 0.05-5 mM of sorbitol-6P or ribitol-5P by monitoring the appearance of glucose-6-phosphate. The y axis represents relative Pgi1 activity (mean±range of N=2 replicates).
FIGS. 13A-13C show polyol phosphates inhibit phosphoglucose isomerase in vitro and in growing yeast. (FIG. 13A). Activity of the purified Pgi1 was assayed in the presence of 0.6 mM fructose-6-phosphate (substrate), 5 mM Mg2+ (pH=7.0, 30° C.) and a range of 0.05-5 mM of sorbitol-6P or ribitol-5P by monitoring the appearance of glucose-6-phosphate. The x-axis represents polyol phosphate concentration and the y-axis represents relative Pgi1 activity (mean±range of N=2 replicates). (FIG. 13B). […] This experiment is used to define a characteristic low-Pgi metabolome. (FIG. 13C). Metabolome profiling of pyp1Δ (dark red) and wild type (blue) cells at t=1 h after switching from trehalose+ribitol to glucose+ribitol.
For the determination of IC50 of sorbitol-6-phosphate and ribitol-5-phosphate on phosphoglucose isomerase, yeast Pgi1 was purchased from Sigma Aldrich (St. Louis, MO). Phosphoglucose isomerase activity was determined by adding fructose-6-phosphate and monitoring the appearance of glucose-6-phosphate using LC/MS. It was determined that the LC/MS-based assay is consistently more sensitive and accurate than the colometric-based assay, which involves coupling the Pgi1 activity with glucose-6-phosphate dehydrogenase activity and monitoring the appearance of NADH. The reaction mixture contained 100 mM Tris-HCl at a pH of 8.0, 10 mM MgCl2, 0.6 mM fructose-6-phosphate (concentration in cells grown exponentially on glucose), and a range of sorbitol-6-phosphate and ribitol-5-phosphate concentrations (0.05 to 5 mM). The resulting data were again fitted to the Hill equation using the GraphPad Prism Software.
To measure the inhibition of Pgi by sorbitol-6-phosphate and ribitol-5-phosphate, yeast Pgi1 was purchased from Sigma Aldrich (St. Louis, MO). Phosphoglucose isomerase activity was determined by adding fructose-6-phosphate and monitoring the appearance of glucose-6-phosphate using LC/MS. We found such LC/MS based assay is consistently more sensitive and accurate than the more typical colorimetric-based assay, which involves coupling the Pgi1 activity with glucose-6-phosphate dehydrogenase activity and monitoring the appearance of NADH. The reaction mixture contained 100 mM Tris-HCl at pH 8.0, 10 mM MgCl2, 0.6 mM fructose-6-phosphate (the physiological concentration in cells grown exponentially on glucose), and a range of sorbitol-6-phosphate and ribitol-5-phosphate concentrations (0.05 to 5 mM). The resulting data were fitted to the Hill equation using the GraphPad Prism Software.

wild type yeast cells = experiment: Growth rate of wild type yeast in the presence of ribitol; format: cell-based, Saccharomyces cerevisiae; details: 1% trehalose +/- 1% ribitol
From the text: as §1, §2

O=P(O)(O)OCC(O)CO (racemic) [racemic glycerol-3P]
Pyp1 phosphatase activity on substrate (in words) (Pyp1): hydrolysis

O=C(CO)[C@@H](O)[C@H](O)[C@H](O)[C@H](O)[C@H](O)COP(=O)(O)O [O8P, D-Glycero-D-Altro-Octulose-8-phosphate]
Pyp1 phosphatase activity on substrate (in words) (Pyp1): No detectable phosphatase activity
Pyp1 phosphatase activity on substrate (in words) (Pyp1; listed as octulose-8P): no detectable phosphatase activity

O=C[C@H](O)[C@H](O)COP(=O)(O)O [erythrose-4P]
Pyp1 phosphatase activity on substrate (in words) (Pyp1): hydrolysis

O=P(O)(O)OCC(O)CO [glycerol-1P, D-glycerol-3-phosphate]
Pyp1 phosphatase activity on substrate (in words) (Pyp1): depletion
Pyp1 phosphatase activity on substrate (in words) (Pyp1; listed as Glycerol-1-phosphate): in vitro substrate

O=P(O)(O)OC[C@H](O)CO [glycerol-3P, L-glycerol-3-phosphate]
Pyp1 phosphatase activity on substrate (in words) (Pyp1; listed as (L)-glycerol-3P): very low activity

O=P(O)(O)OC[C@@H](O)[C@@H](O)[C@@H](O)CO [ribitol-5P, ribitol-5-phosphate]
Lower growth rate in pyp1Δ cells after carbon upshift (pyp1Δ cells; switched from trehalose + ribitol to glucose plus ribitol): ~50%
Inhibition of Pgi1 (in words) [1]: did not inhibit Pgi1 as strongly as sorbitol-6P; also recorded: less potently
Pyp1 phosphatase activity on substrate (in words) (Pyp1): depletion

OC[C@@H](O)[C@@H](O)[C@@H](O)CO [ribitol]
Decrease of the growth rate of pyp1Δ cells (pyp1Δ cells; 1% trehalose +/- 1% ribitol): ~20%
Effect on growth rate of wild type cells growing on trehalose (wild type yeast cells): does not affect the growth rate; also recorded: without impacting growth rate

O=P(O)(O)OC[C@@H](O)[C@@H](O)[C@H](O)[C@@H](O)CO [sorbitol-6P, sorbitol-6-phosphate]
Inhibition of Pgi1 (in words) [1]: inhibit
inhibition at 1000 µM ([1]; 1 mM sorbitol-6P added, read-out: Pgi1 activity inhibited): > 85%
IC50 ([1]; purified Pgi1, 0.6 mM fructose-6-phosphate, inhibitor range 0.05-5 mM): ~50 µM
Pyp1 phosphatase activity on substrate (in words) (Pyp1): depletion; also recorded: hydrolysis
